IC50 data for two molecules are collected here from ChEMBL document CHEMBL5727912, “Benzenesulfonamide compounds and their use as therapeutic agents” (2020).

Each structure is given as a SMILES string.

Assay [1] is described as follows: In Vitro Assay: In general, Trex HEK293 cells were stably transfected with an inducible expression vector containing the full-length cDNA coding for the desired human sodium channel α-subunit and with an expression vector containing full length cDNA coding for the β1-subunit. Sodium channel expressing cell lines were induced with tetracycline (1 μg/mL) and plated on 384-well PDL-coated plates at ….

Test in assay [2]: as above
This is another data set of the same source.

With `C[C@H](c1c(F)ccc(F)c1CNc1cc(F)c(S(=O)(=O)Nc2cscn2)c(F)c1)N1C2CCC1CC2` (single isomer, unassigned), the IC50 in assay [1] and in assay [2] was above 30 µM each time.
For the molecule `C[C@@H](c1c(F)ccc(F)c1CNc1cc(F)c(S(=O)(=O)Nc2cscn2)c(F)c1)N1C2CCC1CC2` (single isomer, unassigned), the IC50 in assay [1] and in assay [2] was above 30 µM in each case.
